# Test results published in patent US20120258938A1, “Enzymatic Production or Chemical Synthesis and Uses for 5,7-Dienes and UVB Conversion Products Thereof” (priority 2008, published 2012).
# Assays:
# [1] = system: HaCaT keratinocytes; test: Colony forming (clonogenicity) assay in HaCaT keratinocytes; type: cell-based, human; details: 10 days
# Protocol: HaCaT and human adult epidermal keratinocytes were cultured and DNA synthesis experiments were performed as described previously (26). Cells were plated in 6-well plates at a density of 20 cells/cm^2 in DMEM (Cellgro, Herndon Va.) containing 5% charcoal-treated fetal bovine serum (Hyclone, Logan, Utah), 1% antibiotic solution (PSA, Sigma, St. Louis, […].) and vehicle or secosteroids. Cells were incubated in 37° C. for 10 days with media being changed every 72 hr. Cells were fixed with 4% paraformaldehyde in PBS overnight, stained with 0.5% crystal violet in PBS for 15 min, rinsed and air-dried. The number and size of the colonies were measured using an ARTEK counter 880 (Dynex Technologies Inc., Chantilly, Va.). Colony forming units were calculated as follows: number of colonies (size>0.5 mm) was divided by the number of cells plated and multiplied by 100.
# [2] = system: normal epidermal keratinocytes; test: Flow cytometry DNA content, normal epidermal keratinocytes; type: cell-based, human; details: 10 nM
# [3] = system: involucrin; test: Real-time RT PCR involucrin mRNA, normal human epidermal keratinocytes; type: cell-based; details: 10^−8 M
# Protocol: (§1) RNA was extracted using an Absolutely RNA RT-PCR Miniprep Kit (Stratagene, La Jolla, Calif.). Real time PCR and reverse transcription products were purchased from Applied Biosystems, Foster City, Calif. Reverse transcription was performed using Taqman® Reverse Transcription Reagents. The following PCR products were used: cytokeratin 14: Hs00265033_m1, involucrin: Hs00846307_s1, CYP27A1: Hs00168003_ml, CYP27B1: Hs00168017_ml, 18SrRNA: Hs99999901_s1. The reaction was performed with Taqman® Universal PCR Master Mix; data were collected on an ABI Prism 7700 and analyzed on Sequence Detector 1.9.1. Specific gene amounts were related to 18SrRNA by comparative CT method.
# [4] = system: CYP27B1; test: Real-time RT PCR CYP27B1 mRNA, normal epidermal keratinocytes; type: cell-based, human; details: 10^−8 M
# Protocol: as §1
# [5] = system: Human dermal fibroblasts; test: TGF-b1 induced collagen protein production by dermal fibroblasts; type: cell-based; details: collagenase sensitive protein; for TGF-b1 induced collagen protein production: [3H]-proline
# Protocol: Human dermal fibroblasts grown from explant skin cultures at less than 10 subpassages were plated at 5×10^4 cells per well in 24 well Costar tissue culture plates and were grown to confluency. Complete MEM was then changed to serum free Complete MEM without non-essential amino acids. After 24 hours, culture medium was changed (450 μl/well) to the same and secosteroids listed in Table 14 were added in 10 μl absolute alcohol (ETOH) to a final concentration of 10^−9 and M, 3 replicate wells each. Vehicle control wells (n=6) contained 10 μl (ETOH). After 2 hour pre-incubation, hr TGF-b1 (R and D systems) was added to each well except ETOH wells at a final concentration of 5 ng/ml. After 48 hours of culture, plate wells were paused with 1μ Cl ^3[H]-proline. After 24 hours, culture supernatants were harvested and collagenase sensitive protein was determined as previously described (44).
# [6] = system: human dermal fibroblast line; test: TGF-b1 induced hyaluronan synthesis by dermal fibroblasts; type: cell-based
# Excerpt: There were found no significant differences in fibroblast numbers per well and no significant differences in trypan blue exclusion between control wells vs those with secosteroids range 95-100% (data not shown).
# [7] = system: VDRE; test: VDRE-Luc reporter (with siRNA) in HaCaT keratinocytes; type: cell-based, human; details: 24 h
# Protocol: HaCaT keratinocytes were transfected with VDRE-Luc (gift from Dr. That Chen (27) and with scrambled or VDR siRNA (Dharmacon, Inc., Lafayette, Mo., on-Target plus smart pool human VDR L-003448-00, on-Target plus siControl non-targeting pool D-001810-10-05) using Lipofectamine Plus (Invitrogen, Carlsbad, Calif.) in DMEM medium. PhRL-TK (expresses Renilla luciferase) served as a normalization control; Promega, Madison, Wis.). After transfection, cells were incubated for 24 hours in DMEM with 5% FBS. Cells were then transferred to fresh media containing the compounds to be tested or vehicle (ethanol) and incubated for 24 hours. Levels of VDR and beta-actin 24 h after transfection were assessed with Western blot (VDR(D-6) antibody, sc-13133, 1:400, Santa Cruz, Inc., Santa Cruz, Calif.) performed as described previously (30.).
# Construct CYP24-Luc and VDRE-Luc constructs were a generous gift from Dr. Tai Cheng, Ph.D. (Boston University Medical Campus, Core Lab Director). It was originally developed by Vaisanen et al. (27). PLuc and NFκB-Luc construct was described previously (28-29). huVDR construct was a generous gift from Dr. D. Bikle. HaCaT keratinocytes were transfected with NFκB-Luc, CYP-24-Luc, VDRE-Luc and hVDR constructs using Lipofectamine Plus (Invitrogen, Carlsbad, Calif.) in DMEM medium with firefly luciferase reporter gene plasmid and with phRL-TK.
# [8] = system: NFκB; test: NFκB-Luc reporter in HaCaT keratinocytes; type: cell-based, human; details: 100 nM
# Protocol: HaCaT keratinocytes were transfected with NFκB-Luc construct using Lipofectamine Plus (Invitrogen, Carlsbad, Calif.) in DMEM medium with firefly luciferase reporter gene plasmid and with phRL-TK (expresses Renilla luciferase and serves as normalization control; Promega, Madison, Wis.). After transfection cells were incubated for 24 h in complete medium, and then after change to fresh media treated with drug or vehicle (ethanol) at the concentration of 10 nM for 30 minutes, 1 h, 4 h, 16 h and 24 h. The firefly luciferase and Renilla luciferase signals were recorded with a TD-20/20 luminometer (Turner Designs, Sunnyvale, Calif.); background luminescence was subtracted and the resulting promoter specific firefly signal was divided by the Renilla signal (proportional to the number of transfected cells). The values obtained were divided by the mean of control (untreated) cells.
structure (smiles),measurement,setting,value
"C=C1/C(=C\C=C2/CCC[C@]3(C)[C@@H]([C@H](C)CCCC(C)(C)O)CC[C@@H]23)C[C@@H](O)C[C@@H]1O [1α,25-dihydroxycholecalciferol, (5Z,7E)-9,10-secocholesta-5,7,10(19)-triene-1α,3β,25-triol, reference compound]",inhibition at 0.01 µM,"[1]; Homo sapiens, HaCaT, 240 h, 10^−8 M, read-out: inhibition of colony formation",64%
same,cells in G1/0,[2]; 24 h,52±2%
same,cells in G2/M,[2]; 24 h,35±5%
same,cells in S phase,[2]; 24 h,13±7%
same,stimulation of involucrin mRNA,[3]; 6 h,~3.1 fold
same,inhibition of CYP27B1 expression,[4]; 1 h,~1.5 fold
same,TGF-b1 induced collagen protein production,[5],inhibited TGF-b1 induced collagen protein production
same,TGF-b1 induced hyaluronan synthesis,[6]; 10^−10 M,inhibited TGF-b1 induced hyaluronan synthesis
"C=C1CC[C@H](O)C/C1=C/C=C1\CCC[C@@]2(C)[C@H]1CC[C@@H]2[C@@](C)(O)CCCC(C)C [20(OH)D3, (5Z,7E)-9,10-secocholesta-5,7,10(19)-triene-3β,20-diol]",inhibition of colony formation,[1]; 10^−7 M,58%
same,inhibition of colony formation,[1]; 10^−8 M,36%
same,cells in G1/0,[2]; 48 h,52±5%
same,cells in G2/M,[2]; 48 h,35±8%
same,cells in S phase,[2]; 48 h,13±12%
same,stimulation of involucrin mRNA,[3]; 6 h,4.7 fold
same,stimulation of involucrin mRNA,[3]; 24 h,1.8 fold
same,inhibition of CYP27B1 expression,[4]; 1 h,~4 fold
same,inhibition of CYP27B1 expression,[4]; 48 h,~2 fold
same,increase in VDRE-driven luciferase activity,"[7]; 10 nM, scrambled siRNA",~3 fold
same,TGF-b1 induced collagen protein production,[5],inhibited TGF-b1 induced collagen protein production
"C=C1CC[C@H](O)C/C1=C/C=C1\CCC[C@]2(C)[C@@H](C(C)(O)CC(O)CC(C)C)CC[C@@H]12 (stereo partly drawn) [20,23-dihydroxycholecalciferol, (5Z,7E)-9,10-secocholesta-5,7,10(19)-triene-3β,20,23-triol]",VDRE-Luc activity,"[7]; HaCaT, 10 nM and 100 nM",Activation of VDRE
same,NFκB-Luc activity,[8],inhibition
"C=C1CC[C@H](O)C/C1=C/C=C1\CCC[C@]2(C)[C@@H](C(C)=O)CC[C@@H]12 [pD3, (5Z,7E)-3β-hydroxy-9,10-secopregna-5,7,10(19)-trien-20-one]",NFκB-Luc activity,[8],inhibits NFκB-Luc activity
same,TGF-b1 induced collagen protein production,[5],inhibited TGF-b1 induced collagen protein production
same,Collagen CPM/Well (mean ± SEM) × 10^−5 FB,"[5]; hrTGF-b1 5 ng/ml, secosteroids at 10^−10M, 3[H]-proline",181 ± 14 CPM/Well × 10^−5 FB
same,Hyaluronan CPM/Well (mean ± SEM) × 10^−5 FB,"[6]; hrTGF-b1 5 ng/ml, secosteroids at 10^−10M",135 ± 25 CPM/Well × 10^−5 FB
